From patent US20250241923A1, “A DUAL SELECTIVE PI3K DELTA AND GAMMA INHIBITORS AND/OR A SALT-INDUCIBLE KINASE 3 INHIBITOR FOR TREATING SOLID TUMORS” (Incozen Therapeutics Pvt. Ltd, priority 2022, published 2025) come the findings set out here.

Data set [1] relates to MC38 syngeneic murine colon carcinoma. Briefly: MC38 syngeneic murine colon carcinoma C57BL/6 model. The class given is in vivo. The following applies: day 22; daily tenalisib; C57BL/6 female mice. The method, then:
Daily tenalisib alone and in combination with anti-PD-1 (clone: RMP1-14) was evaluated for tumor growth inhibition (TGI) in the MC38 syngeneic murine colon carcinoma model in immunocompetent C57BL/6 female mice.

In the next data set the target is T1, PI3Kα (Mus musculus, UniProt P42337).
T1 construct: endogenous in cells; host or cells: 3T3 fibroblasts (pAKT)
T1 sequence (P42337 whole entry): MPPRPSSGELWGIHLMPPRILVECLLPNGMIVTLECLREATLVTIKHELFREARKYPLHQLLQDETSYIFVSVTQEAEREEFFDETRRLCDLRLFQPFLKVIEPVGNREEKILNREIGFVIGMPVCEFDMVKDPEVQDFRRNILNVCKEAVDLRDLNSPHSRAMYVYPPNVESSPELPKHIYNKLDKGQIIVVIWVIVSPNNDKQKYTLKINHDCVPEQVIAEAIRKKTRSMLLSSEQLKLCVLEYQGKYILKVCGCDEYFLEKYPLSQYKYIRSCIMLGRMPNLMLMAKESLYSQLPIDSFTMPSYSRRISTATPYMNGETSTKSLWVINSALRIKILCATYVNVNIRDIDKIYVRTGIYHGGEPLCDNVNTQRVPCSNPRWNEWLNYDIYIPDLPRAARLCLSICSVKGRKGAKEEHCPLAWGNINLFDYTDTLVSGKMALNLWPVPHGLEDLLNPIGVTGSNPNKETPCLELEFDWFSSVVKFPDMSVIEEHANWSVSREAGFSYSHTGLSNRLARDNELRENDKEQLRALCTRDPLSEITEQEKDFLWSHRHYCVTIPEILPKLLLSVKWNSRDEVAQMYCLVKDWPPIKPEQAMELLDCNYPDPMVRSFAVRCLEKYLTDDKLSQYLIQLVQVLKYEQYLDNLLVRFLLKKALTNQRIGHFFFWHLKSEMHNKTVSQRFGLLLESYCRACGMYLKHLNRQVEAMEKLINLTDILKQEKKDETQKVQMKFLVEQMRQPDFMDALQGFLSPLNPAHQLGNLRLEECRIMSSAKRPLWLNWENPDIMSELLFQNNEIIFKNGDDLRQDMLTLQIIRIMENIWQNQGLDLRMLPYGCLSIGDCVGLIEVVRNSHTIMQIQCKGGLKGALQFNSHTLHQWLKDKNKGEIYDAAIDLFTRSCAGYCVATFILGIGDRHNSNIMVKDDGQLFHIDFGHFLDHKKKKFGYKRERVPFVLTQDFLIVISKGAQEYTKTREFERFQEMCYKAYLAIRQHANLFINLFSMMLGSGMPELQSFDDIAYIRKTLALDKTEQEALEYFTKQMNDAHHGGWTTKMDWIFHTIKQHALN
T1 sequence (P26450 whole entry partner): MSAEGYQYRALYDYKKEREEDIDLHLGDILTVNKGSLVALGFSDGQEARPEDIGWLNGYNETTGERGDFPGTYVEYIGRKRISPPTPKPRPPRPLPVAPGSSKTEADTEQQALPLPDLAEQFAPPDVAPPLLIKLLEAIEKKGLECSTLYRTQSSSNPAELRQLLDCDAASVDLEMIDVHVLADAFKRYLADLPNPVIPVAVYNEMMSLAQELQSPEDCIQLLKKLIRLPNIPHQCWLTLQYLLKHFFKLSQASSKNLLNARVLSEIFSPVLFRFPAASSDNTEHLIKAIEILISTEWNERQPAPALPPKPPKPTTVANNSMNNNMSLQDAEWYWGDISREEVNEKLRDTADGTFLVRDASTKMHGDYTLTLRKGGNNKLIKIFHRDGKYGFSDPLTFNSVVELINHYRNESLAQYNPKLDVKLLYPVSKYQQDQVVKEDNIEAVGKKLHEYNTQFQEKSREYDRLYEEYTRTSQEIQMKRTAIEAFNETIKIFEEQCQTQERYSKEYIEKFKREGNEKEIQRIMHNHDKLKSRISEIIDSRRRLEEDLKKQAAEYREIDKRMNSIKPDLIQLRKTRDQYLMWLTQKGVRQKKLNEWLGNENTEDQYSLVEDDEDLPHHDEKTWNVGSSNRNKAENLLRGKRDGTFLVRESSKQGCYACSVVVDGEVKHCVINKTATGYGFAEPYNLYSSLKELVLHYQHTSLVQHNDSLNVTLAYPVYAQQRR
Briefly: PI3K isoform cell-based assay: PI3K α-mediated phosphorylation of AKT in 3T3 fibroblasts. The conditions noted are these: pAKT by PDGF or lysophosphatidic acid in 3T3 fibroblasts.

Data set [2] is described as follows: Pharmacokinetics, oral bioavailability in dogs. The class given is in vivo. The conditions noted are these: dog, plasma. On the procedure: Pharmacokinetic studies following single-dose and repeat dose administration were performed in mice, rats, dogs, humans and monkeys. Tenalisib plasma concentrations were determined by a validated LC-MS/MS method. The pharmacokinetic profile of tenalisib was evaluated following both oral and intravenous administration. […] In an in vitro study using liver microsomes, the metabolic stability followed a rank order of rat>human>dog>monkey>mouse.

The nature of data set [3]: In vitro plasma stability, rat plasma. The following applies: LC-MS/MS. The class given is in vitro ADME. The method, then: (§1) In vitro plasma stability studies were performed using rat, dog, monkey and human plasma. The concentration of tenalisib was measured by LC-MS/MS.
Data set [4] deals with T2, PI3Kγ (Mus musculus, UniProt Q9JHG7).
T2 construct: endogenous in cells; host or cells: RAW macrophages (c5a induced pAKT)
As to the kind of experiment: PI3K isoform cell-based assay: c5a induced pAKT in RAW macrophages.

Data set [5] can be described thus: Metabolic stability in liver microsomes, mouse. The class given is in vitro ADME. The text has this:
In in vitro studies using liver microsomes, the metabolic stability of tenalisib followed the rank order of rat>human>dog>monkey>mouse (Table 3).
On the technique in general: Liver microsomes are a subcellular fraction often used to study metabolism.

A further data set deals with PI3Kδ (Homo sapiens, UniProt O00329). Briefly: PI3K isoform enzyme assay (HTRF), PI3Kδ. The class given is biochemical. On the technique in general: Time-resolved FRET reads energy transfer from a long-lived donor to a nearby acceptor.
PI3Kδ, sequence (O00329 whole entry, canonical isoform): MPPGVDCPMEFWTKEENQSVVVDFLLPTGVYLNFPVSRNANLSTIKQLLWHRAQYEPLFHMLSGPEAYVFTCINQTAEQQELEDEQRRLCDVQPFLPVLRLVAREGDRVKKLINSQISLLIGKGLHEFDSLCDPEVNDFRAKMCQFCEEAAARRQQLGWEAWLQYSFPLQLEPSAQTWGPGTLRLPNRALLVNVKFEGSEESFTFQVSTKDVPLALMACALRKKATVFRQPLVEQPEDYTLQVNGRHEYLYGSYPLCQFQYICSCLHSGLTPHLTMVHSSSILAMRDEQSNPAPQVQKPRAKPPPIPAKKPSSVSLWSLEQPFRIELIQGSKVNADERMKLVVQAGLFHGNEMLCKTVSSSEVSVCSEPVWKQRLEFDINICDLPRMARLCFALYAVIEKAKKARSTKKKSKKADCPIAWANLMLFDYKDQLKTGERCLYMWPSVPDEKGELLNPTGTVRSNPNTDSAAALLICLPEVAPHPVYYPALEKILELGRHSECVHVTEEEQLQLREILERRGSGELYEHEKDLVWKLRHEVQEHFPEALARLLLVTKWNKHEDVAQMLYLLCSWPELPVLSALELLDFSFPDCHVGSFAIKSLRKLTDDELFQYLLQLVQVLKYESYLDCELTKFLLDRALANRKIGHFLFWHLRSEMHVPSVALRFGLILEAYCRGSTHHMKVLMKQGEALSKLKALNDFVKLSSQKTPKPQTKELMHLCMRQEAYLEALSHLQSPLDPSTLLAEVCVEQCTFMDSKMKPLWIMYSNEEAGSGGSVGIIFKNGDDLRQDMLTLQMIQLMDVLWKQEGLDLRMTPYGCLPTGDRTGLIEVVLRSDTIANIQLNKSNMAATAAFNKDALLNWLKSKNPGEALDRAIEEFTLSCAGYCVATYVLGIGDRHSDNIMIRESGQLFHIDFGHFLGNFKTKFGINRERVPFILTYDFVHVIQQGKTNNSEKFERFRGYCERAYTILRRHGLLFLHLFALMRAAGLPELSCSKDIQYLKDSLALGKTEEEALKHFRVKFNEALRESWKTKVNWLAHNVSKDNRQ
PI3Kδ, sequence (P27986 whole entry partner, canonical isoform): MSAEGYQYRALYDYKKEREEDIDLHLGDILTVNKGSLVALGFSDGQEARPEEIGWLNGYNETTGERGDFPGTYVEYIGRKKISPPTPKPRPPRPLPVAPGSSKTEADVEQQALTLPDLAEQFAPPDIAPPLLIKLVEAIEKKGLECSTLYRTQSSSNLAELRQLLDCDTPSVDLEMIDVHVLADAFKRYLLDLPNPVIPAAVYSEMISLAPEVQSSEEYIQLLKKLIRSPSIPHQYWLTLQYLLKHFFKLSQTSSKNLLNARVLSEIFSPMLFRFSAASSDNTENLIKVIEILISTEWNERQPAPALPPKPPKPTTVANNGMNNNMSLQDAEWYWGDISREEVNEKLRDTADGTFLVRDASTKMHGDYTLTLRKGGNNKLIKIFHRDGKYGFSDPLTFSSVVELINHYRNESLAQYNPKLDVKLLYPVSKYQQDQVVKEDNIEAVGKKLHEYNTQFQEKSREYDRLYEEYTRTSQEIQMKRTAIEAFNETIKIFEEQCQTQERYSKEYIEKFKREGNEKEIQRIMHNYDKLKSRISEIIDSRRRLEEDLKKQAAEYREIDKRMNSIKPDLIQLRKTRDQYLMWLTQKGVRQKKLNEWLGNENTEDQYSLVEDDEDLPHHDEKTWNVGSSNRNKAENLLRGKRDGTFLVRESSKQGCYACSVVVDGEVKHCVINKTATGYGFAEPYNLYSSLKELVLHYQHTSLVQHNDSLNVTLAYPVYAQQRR
Data set [6] concerns the target PI3Kγ (Homo sapiens, UniProt P48736). As to the kind of experiment: fMLP induced CD63 expression in human whole blood. The class given is cell-based. On the set-up: endogenous in cells; host or cells: human whole blood (fMLP induced CD63). The conditions noted are these: whole blood from healthy human subjects; flow cytometry; read-out: EC50 of fMLP (PI3Kγ) mediated CD63 expression. On the technique in general: In flow cytometry, cells or beads pass a laser one at a time.

A short description of data set [7]: In vitro plasma stability, human plasma. The conditions noted are these: LC-MS/MS. The class given is in vitro ADME. The method, then:
as §1

As usually defined, the EC50 is the concentration that produces a half-maximal response. A word on the bioavailability: it is dose-corrected exposure relative to a reference, in per cent. Lower therefore signals poor availability. What is called IC50 is the concentration that gives 50% inhibition. Higher therefore signals lower potency.

“Also recorded” adds a separate entry of the source.

PI3Kγ (Homo sapiens, UniProt P48736), sequence (P48736 whole entry): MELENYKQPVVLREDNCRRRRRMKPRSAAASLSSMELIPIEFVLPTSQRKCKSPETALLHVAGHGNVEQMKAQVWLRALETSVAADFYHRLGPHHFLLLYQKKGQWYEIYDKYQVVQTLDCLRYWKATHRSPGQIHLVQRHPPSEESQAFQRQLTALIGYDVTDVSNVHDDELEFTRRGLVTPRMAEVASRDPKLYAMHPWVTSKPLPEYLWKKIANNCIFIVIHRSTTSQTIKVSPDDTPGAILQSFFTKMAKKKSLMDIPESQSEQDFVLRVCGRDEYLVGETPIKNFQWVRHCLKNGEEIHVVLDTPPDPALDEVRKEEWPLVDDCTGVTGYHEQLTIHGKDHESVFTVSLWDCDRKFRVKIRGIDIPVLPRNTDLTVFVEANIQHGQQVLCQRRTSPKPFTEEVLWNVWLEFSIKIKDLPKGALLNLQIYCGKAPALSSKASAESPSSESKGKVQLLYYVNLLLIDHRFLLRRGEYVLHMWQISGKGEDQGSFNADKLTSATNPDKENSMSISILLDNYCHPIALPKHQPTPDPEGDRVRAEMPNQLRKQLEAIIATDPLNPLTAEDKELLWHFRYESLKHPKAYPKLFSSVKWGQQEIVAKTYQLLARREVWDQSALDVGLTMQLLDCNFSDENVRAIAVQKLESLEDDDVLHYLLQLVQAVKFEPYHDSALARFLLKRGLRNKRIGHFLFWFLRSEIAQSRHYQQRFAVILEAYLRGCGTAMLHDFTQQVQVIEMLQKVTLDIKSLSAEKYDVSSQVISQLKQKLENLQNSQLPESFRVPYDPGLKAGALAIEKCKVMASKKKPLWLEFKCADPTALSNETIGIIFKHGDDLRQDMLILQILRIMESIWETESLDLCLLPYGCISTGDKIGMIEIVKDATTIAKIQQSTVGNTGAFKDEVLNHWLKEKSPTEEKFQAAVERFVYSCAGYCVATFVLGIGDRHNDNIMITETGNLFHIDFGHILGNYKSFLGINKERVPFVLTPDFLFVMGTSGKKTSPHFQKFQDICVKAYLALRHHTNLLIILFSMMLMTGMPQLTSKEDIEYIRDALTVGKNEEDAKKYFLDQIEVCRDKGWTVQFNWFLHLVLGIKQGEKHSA

With `CC[C@H](Nc1ncnc2[nH]cnc12)c1oc2ccccc2c(=O)c1-c1cccc(F)c1` [Compound A, (S)-2-(1-(9H-purin-6-ylamino)propyl)-3-(3-fluorophenyl)-4H-chromen-4-one], the “TGI (Tumour Growth Inhibition) compared to control” value in data set [1] amounted to 29%. Also, the EC50 at PI3Kα was over 10000 nM; on PI3Kγ [4], 22.3 nM; on PI3Kγ [6], 37.8 nM. In [2], this molecule gave a bioavailability of over 100%. The plasma stability result in data set [3] and in data set [7] was “stable” each time. In [5], the “% Metabolic Stability” value is listed as 26.0%. This molecule also yielded an IC50 at PI3Kδ (HTRF, 100 μM ATP) of 24.5 nM. Further, the “selectivity over the α and β isoforms (enzyme assay)” value on PI3Kδ (PI3K δ/γ versus PI3K α and β, listed as compound of formula (A)) is given as “several fold selectivity; also recorded: selective”.
